Data: ChEMBL document CHEMBL1671810, “Identification of a novel scaffold for allosteric inhibition of wild type and drug resistant HIV-1 reverse transcriptase by fragment library screening” (J Med Chem, 2011)
The source made the active and inactive calls. The calls are words filed in the database; no cut-off is given here.

Key:
[1] = Binding affinity to wild type HIV1 BH10 isolate reverse transcriptase expressed in Escherichia coli BL21(DE3); design: species or system Human immunodeficiency virus type 1 BH10
[2] = target: T1, Human immunodeficiency virus type 1 reverse transcriptase (Human immunodeficiency virus 1, UniProt Q72547, K103N); test: Binding affinity to HIV1 BH10 isolate reverse transcriptase K103N mutant expressed in Escherichia coli BL21(DE3); design: species or system Human immunodeficiency virus type 1 BH10
[3] = target: T2, Human immunodeficiency virus type 1 reverse transcriptase (Human immunodeficiency virus 1, UniProt Q72547, Y181C); test: Binding affinity to HIV1 BH10 isolate reverse transcriptase Y181C mutant expressed in Escherichia coli BL21(DE3); design: species or system Human immunodeficiency virus type 1 BH10
[4] = target: T3, Human immunodeficiency virus type 1 reverse transcriptase (Human immunodeficiency virus 1, UniProt Q72547, L100I); test: Binding affinity to HIV1 BH10 isolate reverse transcriptase L100I mutant expressed in Escherichia coli BL21(DE3); design: species or system Human immunodeficiency virus type 1 BH10
[5] = Inhibition of wild type HIV1 BH10 isolate reverse transcriptase catalytic activity expressed in Escherichia coli BL21(DE3) by UV-vis spectrophotometry; design: species or system Human immunodeficiency virus type 1 BH10
[6] = target: T1, Human immunodeficiency virus type 1 reverse transcriptase; test: Inhibition of HIV1 BH10 isolate reverse transcriptase K103N mutant catalytic activity expressed in Escherichia coli BL21(DE3) by UV-vis spectrophotometry; design: species or system Human immunodeficiency virus type 1 BH10
[7] = target: T2, Human immunodeficiency virus type 1 reverse transcriptase; test: Inhibition of HIV1 BH10 isolate reverse transcriptase Y181C mutant catalytic activity expressed in Escherichia coli BL21(DE3) by UV-vis spectrophotometry; design: species or system Human immunodeficiency virus type 1 BH10
[8] = target: T3, Human immunodeficiency virus type 1 reverse transcriptase; test: Inhibition of HIV1 BH10 isolate reverse transcriptase L100I mutant catalytic activity expressed in Escherichia coli BL21(DE3) by UV-vis spectrophotometry; design: species or system Human immunodeficiency virus type 1 BH10
[9] = tested on: Human immunodeficiency virus type 1 BH10; test: Displacement of nevirapine from wild type HIV1 BH10 isolate reverse transcriptase expressed in Escherichia coli BL21(DE3) by competition assay

| Structure (SMILES) | Kd [1] [µM] | Kd [2] [µM] | Kd [3] [µM] | Kd [4] [µM] | IC50 [5] [µM] | IC50 [6] [µM] | IC50 [7] [µM] | IC50 [8] [µM] | Activity [9] |
| --- | --- | --- | --- | --- | --- | --- | --- | --- | --- |
| CC(C)N1CCC(CCc2c[nH]cn2)CC1 | 88 |  |  |  |  |  |  |  |  |
| C=CCNc1scnc1S(=O)(=O)c1ccccc1 | 210 | 700 | 200 | 90 | 5 |  |  |  |  |
| CCCCCCCCNC(=O)NCc1ccc(O)c(CO)c1 | 190 |  |  |  |  |  |  |  |  |
| O=C1CCc2c(Br)cccc21 | 270 | 20 | 40 | 40 | 4 | 16 | 16 | 25 |  |
| Cc1ccc(O)cc1 |  |  |  |  |  |  |  |  | inactive |
| COC(=O)C1=C(C)NC(=S)NC1C (stereo not given) | 380 |  | 700 |  | 570 |  |  |  |  |
| Nc1cccc(-c2ccccc2)n1 |  |  |  |  |  |  |  |  | inactive |
| O=C(c1ccncc1)c1ccc(Cl)cc1 | > 500 | 600 | 700 | 60 | 96 |  |  |  |  |
| C/C(=N\O)c1ccc2c(c1)CCC2 | 300 | 50 | 50 | 200 | 39 |  |  |  |  |
| O=C1c2ccccc2CCc2ncccc21 | 180 | 50 | 300 | 200 | 430 |  |  |  |  |
| Cc1cc2c(cc1[N+](=O)[O-])OCO2 | 79 | 20 | 100 | 40 | 150 |  |  |  |  |
